Assay results taken from patent publication US9169241B2, “Quinolinyloxyphenylsulfonamides” (Max-Planck-Gesellschaft Zur Forderung der Wissenschaften …, priority 2009, dated 2015).
Like-named read-outs stand apart in the source and are kept apart here.

What was measured:
Type in all cases: cell-based
viable cells in culture = assay: Cell viability assay at 10 μM (CellTiter-Glo, Table VII); details: compound 10 μM, 72 h;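 note: graded A 0-20%; B 21-40%; C 41-60%; D over 60% viable cells relative to DMSO control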
Procedure, shortened: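 Viable cell number was measured with the CellTiter-Glo Luminescent Cell Viability Assay (Promega), following the manufacturer's protocol, which quantifies ATP as a marker of metabolically active cells. In 96-well plates, 1000 cells/well in 100 μl medium were exposed to compound at 10 μM, or to DMSO control, for 72 h. Values were calculated relative to DMSO-control ATP.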

tumor cell = assay: Matrigel outgrowth assay/branching assay (Table Va)
Procedure, shortened: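 Cells (5000/well) were seeded onto polymerized 3 mg/ml Matrigel with compound at 3.125, 1.56 or 0.78 μM, or DMSO. Imaging by inverted microscopy at 48, 72 and 96 h scored invasive branching. Only concentrations giving total branching inhibition counted as positive.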

cells = assay: Boyden chamber migration assay (Table VI); details: Hs578T cells, 16 h migration
Procedure, shortened: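 20000 cells seeded in the upper compartment in 0% FCS plus 0.1% BSA and left 16 h to migrate through […] membrane toward 10% FCS medium below. Non-migrated cells swabbed off; cells on the filter underside fixed and counted.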

Hs578T = assay: Apoptosis assay (Cellomics, nucleus condensation); details: Homo sapiens, Hs-578T, Table III, read-out: Apoptosis induction in Hs578T
Procedure, shortened: (§1)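 Cells at 5000 per well were stained live with Hoechst 33342 and imaged on an automated fluorescence microscope after 24 h and 48 h compound exposure (12.5 μM down to 0.39 μM, twofold steps; DMSO control). Per-nucleus intensity variation quantified nuclear condensation; cell counts were also recorded.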

U138 = assay: Apoptosis assay (Cellomics, nucleus condensation); details: Table III, read-out: Apoptosis induction in U138
Procedure, shortened: as §1

C8161 = assay: Apoptosis assay (Cellomics, nucleus condensation); details: Homo sapiens, Table III, read-out: Apoptosis induction in C8161
Procedure, shortened: as §1

SF763 = assay: Apoptosis assay (Cellomics, nucleus condensation); details: Table III, read-out: Apoptosis induction in SF763
Procedure, shortened: as §1

SF126 = assay: Apoptosis assay (Cellomics, nucleus condensation); details: Homo sapiens, SF-126, Table III, read-out: Apoptosis induction in SF126
Procedure, shortened: as §1

[1] = Homo sapiens, HCT-116, HCT116 def, read-out: percentage (%) of viable cells HCT 116def
[2] = Homo sapiens, HCT-116, HCT116 wt, read-out: percentage (%) of viable cells HCT 116wt
[3] = Homo sapiens, HT-29, HT29, read-out: percentage (%) of viable cells HT29
[4] = Homo sapiens, NCI-H358, H358, read-out: percentage (%) of viable cells H358
[5] = Homo sapiens, NCI-H1650, H1650, read-out: percentage (%) of viable cells H1650
[6] = Homo sapiens, NCI-H1666, H1666, read-out: percentage (%) of viable cells H1666
[7] = Homo sapiens, NCI-H1975, H1975, read-out: percentage (%) of viable cells H1975
[8] = Homo sapiens, NCI-H1993, H1993, read-out: percentage (%) of viable cells H1993
[9] = Homo sapiens, A549, read-out: percentage (%) of viable cells A549
[10] = Homo sapiens, HCC827, read-out: percentage (%) of viable cells HCC827
[11] = Homo sapiens, SW480, read-out: percentage (%) of viable cells SW480
[12] = RKO, read-out: percentage (%) of viable cells RKO
[13] = Homo sapiens, C8161 cells, read-out: Total branching inhibition in Matrigel C8161
[14] = Homo sapiens, Hs-578T, Hs578T cells, read-out: Total branching inhibition in Matrigel Hs578T
[15] = U118 cells, read-out: Total branching inhibition in Matrigel U118
[16] = U138 cells, read-out: Total branching inhibition in Matrigel U138

SMILES	IC50 (tumor cell; [13])	IC50 (tumor cell; [14])	IC50 (tumor cell; [15])	IC50 (tumor cell; [16])	IC50 (cells; Homo sapiens, Hs-578T, 16 h)	IC50 (Hs578T)	IC50 (U138)	IC50 (C8161)	IC50 (SF763)	IC50 (SF126)	viability at 10 µM (viable cells in culture; [1])	viability at 10 µM (viable cells in culture; [2])	viability at 10 µM (viable cells in culture; [3])	viability at 10 µM (viable cells in culture; [4])	viability at 10 µM (viable cells in culture; [5])	viability at 10 µM (viable cells in culture; [6])	viability at 10 µM (viable cells in culture; [7])	viability at 10 µM (viable cells in culture; [8])	viability at 10 µM (viable cells in culture; [9])	viability at 10 µM (viable cells in culture; [10])	also measured
COc1cc2c(Oc3ccc(NS(=O)(=O)c4ccc(F)c(C#N)c4)cc3F)ccnc2cc1OCCCN1CCCC(C)C1 (stereo not drawn) [Example 72, 3-Cyano-4-fluoro-N-(3-fluoro-4-{6-methoxy-7-[3-(3-methyl-piperidin-1-yl)-propoxy]-quinolin-4-yloxy}-phenyl)-benzenesulfonamide]	≤ 5 µM	≤ 5 µM	≤ 5 µM	≤ 5 µM	≤ 5 µM	≤ 12.5 µM	12.5 to 50 µM	≤ 12.5 µM	≤ 12.5 µM	12.5 to 50 µM	41 to 60%	21 to 40%	0 to 20%	21 to 40%	41 to 60%	21 to 40%	41 to 60%	0 to 20%	> 60%	41 to 60%	viability at 10 µM (viable cells in culture; [11]): 0 to 20%; viability at 10 µM (viable cells in culture; [12]): 0 to 20%
COc1cc2c(Oc3ccc(NS(=O)(=O)c4cccc(C#N)c4)cc3F)ccnc2cc1OCCCN1CCCC(C)C1 (stereo not drawn) [Example 41, 3-Cyano-N-(3-fluoro-4-{6-methoxy-7-[3-(3-methyl-piperidin-1-yl)-propoxy]-quinolin-4-yloxy}-phenyl)-benzenesulfonamide]	≤ 5 µM	≤ 5 µM	≤ 5 µM	5 to 50 µM	≤ 5 µM	≤ 12.5 µM	≤ 12.5 µM	≤ 12.5 µM	≤ 12.5 µM	≤ 12.5 µM	0 to 20%	41 to 60%	21 to 40%	0 to 20%	41 to 60%	21 to 40%	0 to 20%	21 to 40%	21 to 40%	41 to 60%	viability at 10 µM (viable cells in culture; [11]): 0 to 20%; viability at 10 µM (viable cells in culture; [12]): 0 to 20%
COc1cc2c(Oc3ccc(NS(=O)(=O)c4ccccc4C(F)(F)F)cc3F)ccnc2cc1OCC(=O)N(C)C [Example 93, 2-{4-[2-Fluoro-4-(2-trifluoromethyl-benzenesulfonylamino)-phenoxy]-6-methoxy-quinolin-7-yloxy}-N,N-dimethyl-acetamide]	≤ 5 µM	≤ 5 µM	≤ 5 µM	5 to 50 µM	5 to 50 µM	≤ 12.5 µM	≤ 12.5 µM	≤ 12.5 µM	≤ 12.5 µM	≤ 12.5 µM	21 to 40%	> 60%	0 to 20%	0 to 20%	21 to 40%	21 to 40%	0 to 20%	21 to 40%	> 60%	21 to 40%	viability at 10 µM (viable cells in culture; [11]): 0 to 20%; viability at 10 µM (viable cells in culture; [12]): 0 to 20%; IC50 (cells): ≤ 5 µM
COc1cc2c(Oc3ccc(NS(=O)(=O)c4ccccc4OC(F)(F)F)cc3F)ccnc2cc1OCCCN1CCN(C)CC1 [Example 25, N-(3-Fluoro-4-{6-methoxy-7-[3-(4-methyl-piperazin-1-yl)-propoxy]-quinolin-4-yloxy}-phenyl)-2-trifluoromethoxy-benzenesulfonamide]	≤ 5 µM	≤ 5 µM	≤ 5 µM	5 to 50 µM	≤ 5 µM	≤ 12.5 µM	≤ 12.5 µM	≤ 12.5 µM	≤ 12.5 µM	≤ 12.5 µM	–	–	–	–	–	–	–	–	–	–	–

Second part, led by results:

IC50 (tumor cell; [13])	IC50 (tumor cell; [14])	IC50 (tumor cell; [15])	IC50 (tumor cell; [16])	IC50 (cells; Homo sapiens, Hs-578T, 16 h)	IC50 (Hs578T)	IC50 (U138)	IC50 (C8161)	IC50 (SF763)	IC50 (SF126)	SMILES	viability at 10 µM (viable cells in culture; [1])	viability at 10 µM (viable cells in culture; [2])	viability at 10 µM (viable cells in culture; [3])	viability at 10 µM (viable cells in culture; [4])	viability at 10 µM (viable cells in culture; [5])	viability at 10 µM (viable cells in culture; [6])	viability at 10 µM (viable cells in culture; [7])	viability at 10 µM (viable cells in culture; [8])	viability at 10 µM (viable cells in culture; [9])	viability at 10 µM (viable cells in culture; [10])	also measured
≤ 5 µM	≤ 5 µM	≤ 5 µM	5 to 50 µM	≤ 5 µM	12.5 to 50 µM	≤ 12.5 µM	≤ 12.5 µM	≤ 12.5 µM	≤ 12.5 µM	COc1cc2c(Oc3ccc(NS(=O)(=O)c4ccccc4OC)cc3F)ccnc2cc1OCCCN1CCN(C)CC1 [Example 33, N-(3-Fluoro-4-{6-methoxy-7-[3-(4-methyl-piperazin-1-yl)-propoxy]-quinolin-4-yloxy}-phenyl)-2-methoxy-benzenesulfonamide]	21 to 40%	0 to 20%	0 to 20%	21 to 40%	> 60%	21 to 40%	21 to 40%	0 to 20%	41 to 60%	21 to 40%	viability at 10 µM (viable cells in culture; [11]): 0 to 20%; viability at 10 µM (viable cells in culture; [12]): 0 to 20%
≤ 5 µM	≤ 5 µM	≤ 5 µM	5 to 50 µM	≤ 5 µM	≤ 12.5 µM	≤ 12.5 µM	≤ 12.5 µM	≤ 12.5 µM	≤ 12.5 µM	COc1cc2c(Oc3ccc(NS(=O)(=O)c4c(Cl)cccc4Cl)cc3F)ccnc2cc1OCCCN1CCN(C)CC1 [Example 32, 2,6-Dichloro-N-(3-fluoro-4-{6-methoxy-7-[3-(4-methyl-piperazin-1-yl)-propoxy]-quinolin-4-yloxy}-phenyl)-benzenesulfonamide]	21 to 40%	0 to 20%	0 to 20%	0 to 20%	21 to 40%	41 to 60%	21 to 40%	0 to 20%	41 to 60%	41 to 60%	viability at 10 µM (viable cells in culture; [11]): 21 to 40%; viability at 10 µM (viable cells in culture; [12]): 21 to 40%
≤ 5 µM	≤ 5 µM	≤ 5 µM	5 to 50 µM	≤ 5 µM	≤ 12.5 µM	12.5 to 50 µM	≤ 12.5 µM	≤ 12.5 µM	≤ 12.5 µM	COc1cc2c(Oc3ccc(NS(=O)(=O)c4ccccc4Cl)cc3F)ccnc2cc1OCCCN1CCN(C)CC1 [Example 29, 2-Chloro-N-(3-fluoro-4-{6-methoxy-7-[3-(4-methyl-piperazin-1-yl)-propoxy]-quinolin-4-yloxy}-phenyl)-benzenesulfonamide]	0 to 20%	0 to 20%	0 to 20%	21 to 40%	21 to 40%	41 to 60%	0 to 20%	0 to 20%	41 to 60%	21 to 40%	viability at 10 µM (viable cells in culture; [11]): 0 to 20%; viability at 10 µM (viable cells in culture; [12]): 0 to 20%
5 to 50 µM	≤ 5 µM	5 to 50 µM	5 to 50 µM	≤ 5 µM	≤ 12.5 µM	12.5 to 50 µM	≤ 12.5 µM	≤ 12.5 µM	≤ 12.5 µM	COc1cc2c(Oc3ccc(NS(=O)(=O)c4ccccc4[N+](=O)[O-])cc3F)ccnc2cc1OCCCN1CCN(C)CC1 [Example 21, N-(3-Fluoro-4-{6-methoxy-7-[3-(4-methyl-piperazin-1-yl)-propoxy]-quinolin-4-yloxy}-phenyl)-2-nitro-benzenesulfonamide]	41 to 60%	> 60%	21 to 40%	21 to 40%	41 to 60%	41 to 60%	41 to 60%	21 to 40%	> 60%	> 60%	viability at 10 µM (viable cells in culture; [11]): 21 to 40%; viability at 10 µM (viable cells in culture; [12]): 41 to 60%
